Consider 6 substances from paper PMC12132917, “Carborane‐Based Analogs of Celecoxib and Flurbiprofen, their COX Inhibition Potential, and COX Selectivity Index” (Chemmedchem, 2025).

One series has as its target T1, recombinant human COX‐2 (Homo sapiens, UniProt P35354).
T1 construct: purchased Cayman Chemical Company
T1 sequence (P35354 18-604): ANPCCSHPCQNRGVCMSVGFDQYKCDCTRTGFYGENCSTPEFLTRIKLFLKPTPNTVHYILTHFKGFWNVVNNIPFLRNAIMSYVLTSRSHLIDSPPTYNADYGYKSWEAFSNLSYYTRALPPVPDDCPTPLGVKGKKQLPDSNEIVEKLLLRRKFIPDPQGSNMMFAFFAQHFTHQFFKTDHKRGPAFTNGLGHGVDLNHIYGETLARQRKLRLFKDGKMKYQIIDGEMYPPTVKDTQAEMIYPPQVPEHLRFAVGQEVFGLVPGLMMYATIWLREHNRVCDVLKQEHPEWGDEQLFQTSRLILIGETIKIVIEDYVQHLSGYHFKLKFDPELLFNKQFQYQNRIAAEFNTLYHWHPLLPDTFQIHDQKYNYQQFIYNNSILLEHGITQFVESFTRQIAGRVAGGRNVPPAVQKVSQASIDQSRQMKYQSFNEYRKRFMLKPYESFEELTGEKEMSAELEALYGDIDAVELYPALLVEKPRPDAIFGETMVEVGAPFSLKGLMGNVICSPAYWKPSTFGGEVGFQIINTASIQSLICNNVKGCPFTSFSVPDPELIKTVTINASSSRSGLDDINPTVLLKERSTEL
The series is classed as biochemical. Particulars: for IC50: read-out: IC50 [μM] (95% CI) COX‐2. An excerpt:
(§1) For the cyclooxygenase assays, the fluorescence‐based COX assay “COX Fluorescent Inhibitor Screening Assay Kit” (Cayman Chemical Company, Ann Arbor, MI, USA) was used according to the manufacturer's instructions. […] All concentrations have been tested at least in duplicate.

Another series concerns the target T2, ovine COX‐1 (Ovis aries, UniProt P05979).
T2 construct: purchased Cayman Chemical Company
T2 sequence (P05979 25-600): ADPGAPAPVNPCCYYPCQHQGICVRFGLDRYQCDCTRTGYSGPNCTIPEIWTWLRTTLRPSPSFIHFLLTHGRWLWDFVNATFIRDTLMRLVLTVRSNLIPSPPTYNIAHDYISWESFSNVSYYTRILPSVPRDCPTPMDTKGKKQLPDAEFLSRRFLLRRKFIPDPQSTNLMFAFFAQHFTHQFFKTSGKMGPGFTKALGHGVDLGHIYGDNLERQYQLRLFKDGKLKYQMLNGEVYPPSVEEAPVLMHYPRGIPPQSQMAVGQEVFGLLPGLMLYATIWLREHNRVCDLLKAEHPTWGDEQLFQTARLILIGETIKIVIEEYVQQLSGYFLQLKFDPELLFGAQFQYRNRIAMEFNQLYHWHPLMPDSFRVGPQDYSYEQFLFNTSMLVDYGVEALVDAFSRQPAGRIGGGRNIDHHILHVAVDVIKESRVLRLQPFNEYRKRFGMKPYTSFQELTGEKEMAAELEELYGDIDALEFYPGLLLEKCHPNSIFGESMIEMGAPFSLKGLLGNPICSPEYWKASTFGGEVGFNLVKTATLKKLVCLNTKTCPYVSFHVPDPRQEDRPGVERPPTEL
Description: COX Fluorescent Inhibitor Screening Assay Kit (Cayman), COX-1 inhibition. The series is classed as biochemical. To be noted: for IC50: read-out: IC50 [μM] (95% CI) COX‐1, absolute IC50.
Excerpt: as §1

Series [1] can be described thus: Stability in DMSO/water (1:1, v/v) by HPLC-UV-MS or analytical HPLC. It is filed as physicochemical. To be noted: DMSO/H2O (1:1, v/v), RP-HPLC. The protocol: The stability of compounds 6, 7, 9, 10, 13a,b, and 14a,b in aqueous solution was studied by HPLC‐UV‐MS or analytical HPLC measurements as well (see Supporting Information for details, “4 HPLC Stability Determination of Compounds 6, 7, 9, 10, 13a, 13b, 14a, 14b”). All compounds except 13a were stable for at least one day (Supporting Information, section 4 ).
The stability was evaluated for all compounds in a mixture of DMSO, dried over molecular sieve, and LC‐MS grade water (1:1, v/v) with the same HPLC‐UV‐MS systems as described under “Purity Determination”. The column, eluent system, flow and MS tool were operated in the same way. For the stability determination, a few milligrams of each compound were dissolved in 1 mL DMSO. To dissolve the compounds, they were vortexed and heated up if necessary. The stock solution was further diluted with water. For that, 50–100 μL of the stock solution was transferred into a vial and the same amount of LC‐MS grade water was added. The two solvents were mixed thoroughly, and the measurement with HPLC‐UV‐MS was directly started. Additionally, measurements were performed in a varying time frame, from 15 or 20 min to 1 day. Usually, the injection volume was 10 μL, and before the measurement of the samples, a blank run with only DMSO/LC‐MS grade water (1:1, v/v) was performed. […] For the latter compounds, the aforementioned system (Agilent 1200 system) and the following gradient was used: 0–3 min 45% eluent B, 3–28 min 45%–95% eluent B, 28–34 min 95% eluent B, 34–35 min 95%–45% eluent B, then 35–40 min 45% eluent B, flow: 0.75 mL min^−1.
4 Stability Determination of Compounds 6, 7, 9, 10, 13a, 13b, 14a, 14b by HPLC A few milligrams of each compound have been dissolved in 1 mL DMSO, which was stored over molecular sieve.
50-100 µL of the DMSO solution have been transferred into a separate vial together with the same amount of LC-MS grade water. The mixture was measured directly after water addition and in time intervals from 20 min to 1 d by HPLC-UV-MS or analytical HPLC measurements. All compounds were stable for at least one day except for […]
rather for its nido-carborane analog, which was anyway the most prominent side product, no further stability measurements have been performed.
Figure S74. RP-HPLC chromatograms of blank (DMSO/H2O, black and green) and compound 6, retention time: 10.5 min, purity after 1 d: >98%.
Figure S75. RP-HPLC chromatograms of blank (DMSO/H2O, blue and pink) and compound 7, retention time: 8.3 min, purity after 1 d: >96%. […]

Setting [2] is: 100 μM, n = 2, n.i. = no inhibition (%‐inhibition < 5 %).
The mark [3] stands for this setting: Inhibition at 98 μM instead of 100 μM, n = 2.

Where two headings read alike, the source gives them in different places. Marks after values point to notes of the source that are not given here.

What is called IC50 is the concentration needed to halve the response being measured. Consider “Di‐cesium N,N‐bis[3‐(7,8‐nido‐dicarbadodecahydroundecaborate(−1))propyl]‐4‐[5‐(p‐tolyl)‐3‐(trifluoromethyl)‐1H‐pyrazol‐1‐yl]benzenesulfonamide [Compound 10]”, for which the “%‐inhibition at 100 [μM] (n = 2) COX‐2” value at recombinant human COX‐2 (setting [2]) stood at 103%. In addition, at recombinant human COX‐2 (absolute IC50), the “IC50 [μM] (95% CI) COX‐2” value is “sub‐μM range” and the IC50 is 0.34 µM. Moreover, the “SI = IC50(COX‐1)/IC50(COX‐2)” value on recombinant human COX‐2 (selectivity index) is reported as 10.3. For the same substance, the “%‐inhibition at 100 [μM] (n = 2) COX‐1” value at ovine COX‐1 (n = 2) came to 103%. Further, the IC50 on ovine COX‐1 was 3.49 µM. Besides, the “purity after 1 d” value in series [1] is given as more than 99%.

On to “Cesium N‐[3‐(7,8‐nido‐dicarbadodecahydroundecaborate(−1))propyl]‐4‐[5‐(p‐tolyl)‐3‐(trifluoromethyl)‐1H‐pyrazol‐1‐yl]benzenesulfonamide [Compound 7]”, for which, at recombinant human COX‐2 (setting [2]), the “%‐inhibition at 100 [μM] (n = 2) COX‐2” value is 100%. Moreover, the IC50 worked out at 8.75 µM at recombinant human COX‐2 (absolute IC50) and 11.2 µM at ovine COX‐1. Further, on recombinant human COX‐2 (selectivity index), the “SI = IC50(COX‐1)/IC50(COX‐2)” value stood at 1.28. Also, at ovine COX‐1 (n = 2), the “%‐inhibition at 100 [μM] (n = 2) COX‐1” value amounted to 94%. Moreover, the “purity after 1 d” value in series [1] is more than 96%.

For “N‐[3‐(1,2‐closo‐dicarbadodecaborane)propyl]‐4‐[5‐(p‐tolyl)‐3‐(trifluoromethyl)‐1H‐pyrazol‐1‐yl]benzenesulfonamide [Compound 6]”, the “%‐inhibition at 100 [μM] (n = 2) COX‐2” value on recombinant human COX‐2 (setting [2]) was not above 55%. The “%‐inhibition (n = 2) COX‐2” value at recombinant human COX‐2 (setting [3]) is 54 ^b) %. Also, the IC50 at recombinant human COX‐2 (absolute IC50) was determined as 120 µM. In addition, the “%‐inhibition at 100 [μM] (n = 2) COX‐1” value at ovine COX‐1 (n = 2) is not above 55%. Further, the “%‐inhibition (n = 2) COX‐1” value at ovine COX‐1 (setting [3]) is recorded as 9 ^b) %. In series [1], the “purity after 1 d” value is listed as more than 98%.

In the case of “N,N‐Bis[3‐(1,2‐closo‐dicarbadodecaborane)propyl]‐4‐[5‐(p‐tolyl)‐3‐(trifluoromethyl)‐1H‐pyrazol‐1‐yl]benzenesulfonamide [Compound 9]”, the IC50 at ovine COX‐1 is more than 320 µM. The “purity after 1 d” value in series [1] is on record as more than 99%.

Take “Cesium (R/S)‐2‐[2‐fluoro‐(1,1′‐biphenyl)‐4‐yl]‐N‐(7,8‐nido‐dicarbadodecahydroundecaborate(−1))‐methylpropanamide [Compound 14a]”: the “SI = IC50(COX‐1)/IC50(COX‐2)” value at recombinant human COX‐2 worked out at 1.9. The “%‐inhibition at 100 [μM] (n = 2) COX‐2” value at recombinant human COX‐2 (100 µM) turned out to be 91%. The “%‐inhibition at 100 [μM] (n = 2) COX‐1” value on ovine COX‐1 (n = 2) was found to be 94%.

As for “Cesium (R/S)‐2‐[2‐fluoro‐(1,1'‐biphenyl)‐4‐yl]‐N‐(7,8‐nido‐dicarbadodecahydroundecaborate(−1))‐ethylpropanamide [Compound 14b]”, at recombinant human COX‐2, the “SI = IC50(COX‐1)/IC50(COX‐2)” value came out at 2.7. Further, the “%‐inhibition at 100 [μM] (n = 2) COX‐2” value at recombinant human COX‐2 (100 µM) was found to be 80%. On ovine COX‐1 (n = 2), the “%‐inhibition at 100 [μM] (n = 2) COX‐1” value amounted to 72%.
